Reference: article PMC8286840, “Identifying SARS-CoV-2 antiviral compounds by screening for small molecule inhibitors of Nsp3 papain-like protease” (Biochemical Journal, 2021)
Where a name gives a salt, the structure may show the parent alone. Read-outs that look alike come from different tables or passages of the source.

Legend:
[1] = biological target: T1, SARS-CoV-2 PLpro (nsp3 1564–1878) (Severe acute respiratory syndrome coronavirus 2, UniProt P0DTD1); assay: biochemical; design: FRET-quenched peptide (Pro3) cleavage by PLpro, 10 min pre-incubation, slope over 20 min, normalised to no-compound control; conditions: read-out: % of control remaining
[2] = biological target: T1, SARS-CoV-2 PLpro (nsp3 1564–1878); assay: biochemical; design: FRET-quenched peptide (Pro3) cleavage by PLpro, 10 min pre-incubation, slope over 20 min, normalised to no-compound control; conditions: read-out: % of control remaining; remark: listed apart in the source

CNC(=O)c1ccc(N2C(=S)N(c3cnc(C#N)c(C(F)(F)F)c3)C(=O)C23CCC3)cc1F [ARN-509]
remaining activity at 1.25 µM ([1]; Well no.=5169, low concentration screen): 105% | remaining activity at 3.75 µM ([2]; Well no.=5169, high concentration screen): 101%

CO[C@H]1C(=O)[C@]2(C)[C@@H](OC)C[C@H]3OC[C@@]3(OC(C)=O)[C@H]2[C@H](OC(=O)c2ccccc2)[C@]2(O)C[C@H](OC(=O)[C@H](O)[C@@H](NC(=O)OC(C)(C)C)c3ccccc3)C(C)=C1C2(C)C [Cabazitaxel (Jevtana)]
remaining activity at 1.25 µM ([1]; Well no.=5263, low concentration screen): 95.3% | remaining activity at 3.75 µM ([2]; Well no.=5263, high concentration screen): 92.6%

O=C(O)c1ccccc1Nc1cccc(OCc2ccc3ccccc3n2)c1 [SR 2640]
remaining activity at 1.25 µM ([1]; Well no.=1316, low concentration screen): 101% | remaining activity at 3.75 µM ([2]; Well no.=1316, high concentration screen): 101%

Cc1[nH]c(/C=C2\C(=O)Nc3ccc(S(=O)(=O)N(C)c4cccc(Cl)c4)cc32)c(C)c1C(=O)N1CCN(C)CC1 [SU11274]
remaining activity at 1.25 µM ([1]; Well no.=8164, low concentration screen): 95.8% | remaining activity at 3.75 µM ([2]; Well no.=8164, high concentration screen): 94.4%

CC(C)c1cc2c(c(O)c1O)[C@@]1(C(=O)O)CCCC(C)(C)[C@@H]1CC2 [Carnosic acid]
remaining activity at 1.25 µM ([1]; Well no.=4038, low concentration screen): 101% | remaining activity at 3.75 µM ([2]; Well no.=4038, high concentration screen): 104%

O=CN1CC/C(=C\c2ccc3c(c2)OCO3)C1=O [KNK437]
remaining activity at 1.25 µM ([1]; Well no.=8768, low concentration screen): 92.1% | remaining activity at 3.75 µM ([2]; Well no.=8768, high concentration screen): 89.6%

CCC(CC)CC1(C(=O)Nc2ccccc2SC(=O)C(C)C)CCCCC1 [Dalcetrapib (JTT-705, RO4607381)]
remaining activity at 1.25 µM ([1]; Well no.=8198, low concentration screen): 102% | remaining activity at 3.75 µM ([2]; Well no.=8198, high concentration screen): 102%

CN1CCc2c(c3ccccc3n2Cc2ccccc2)C1 [Mebhydrolin (napadisylate)]
remaining activity at 1.25 µM ([1]; Well no.=7437, low concentration screen): 99.4% | remaining activity at 3.75 µM ([2]; Well no.=7437, high concentration screen): 94.1%

c1ccc([C@@H]2CCC[C@@H]2NC2=NCCCCCCCCCCC2)cc1 [MDL 12,330A hydrochloride]
remaining activity at 1.25 µM ([1]; Well no.=993, low concentration screen): 103% | remaining activity at 3.75 µM ([2]; Well no.=993, high concentration screen): 101%

CCCCCCCCCC(=O)N[C@@H](Cc1c[nH]c2ccccc12)C(=O)N[C@H](CC(N)=O)C(=O)N[C@@H](CC(=O)O)C(=O)N[C@@H]1C(=O)NCC(=O)N[C@@H](CCCN)C(=O)N[C@@H](CC(=O)O)C(=O)N[C@H](C)C(=O)N[C@@H](CC(=O)O)C(=O)NCC(=O)N[C@H](CO)C(=O)N[C@@H]([C@H](C)CC(=O)O)C(=O)N[C@@H](CC(=O)c2ccccc2N)C(=O)O[C@@H]1C [Daptomycin]
remaining activity at 1.25 µM ([1]; Well no.=5201, low concentration screen): 98.3% | remaining activity at 1.25 µM ([1]; Well no.=7796, low concentration screen): 104% | remaining activity at 3.75 µM ([2]; Well no.=5201, high concentration screen): 100% | remaining activity at 3.75 µM ([2]; Well no.=7796, high concentration screen): 105%

NCCNc1nonc1C(=Nc1ccc(F)c(Br)c1)NO [IDO-IN-3]
remaining activity at 1.25 µM ([1]; Well no.=8693, low concentration screen): 107% | remaining activity at 3.75 µM ([2]; Well no.=8693, high concentration screen): 101%

COc1cc(CC(=O)O)ccc1O [4-Hydroxy-3-methoxyphenylacetic acid]
remaining activity at 1.25 µM ([1]; Well no.=750, low concentration screen): 99.7% | remaining activity at 3.75 µM ([2]; Well no.=750, high concentration screen): 97.2%

O=C(/C=C/C=C/c1ccc2c(c1)OCO2)N1CCCCC1 [Piperine]
remaining activity at 1.25 µM ([1]; Well no.=3110, low concentration screen): 92.8% | remaining activity at 1.25 µM ([1]; Well no.=8242, low concentration screen): 99.3% | remaining activity at 3.75 µM ([2]; Well no.=3110, high concentration screen): 94.5% | remaining activity at 3.75 µM ([2]; Well no.=8242, high concentration screen): 96.3%

Cc1nc(Nc2ncc(C(=O)Nc3c(C)cccc3Cl)s2)cc(N2CCN(CCO)CC2)n1 [Dasatinib]
remaining activity at 1.25 µM ([1]; Well no.=2933, low concentration screen): 101% | remaining activity at 3.75 µM ([2]; Well no.=2933, high concentration screen): 97.3%

NCCc1ccc(O)c(O)c1 [Dopamine hydrochloride]
remaining activity at 1.25 µM ([1]; Well no.=518, low concentration screen): 102% | remaining activity at 3.75 µM ([2]; Well no.=518, high concentration screen): 99.9%

Nc1ncnc2c1nc(Br)n2[C@@H]1O[C@@H]2COP(=O)(O)O[C@H]2[C@H]1O [8-Bromo-cAMP sodium]
remaining activity at 1.25 µM ([1]; Well no.=129, low concentration screen): 108% | remaining activity at 3.75 µM ([2]; Well no.=129, high concentration screen): 111%

CCCCCCCCCCC[C@@H](C[C@@H]1OC(=O)[C@H]1CCCCCC)OC(=O)[C@H](CC(C)C)NC=O [Orlistat]
remaining activity at 1.25 µM ([1]; Well no.=7366, low concentration screen): 101% | remaining activity at 3.75 µM ([2]; Well no.=7366, high concentration screen): 101%

CC[C@@H](CO)Nc1nc(NCc2ccc(-c3ccccn3)cc2)c2ncn(C(C)C)c2n1 [CR8, (S)-Isomer]
remaining activity at 1.25 µM ([1]; Well no.=2343, low concentration screen): 103% | remaining activity at 3.75 µM ([2]; Well no.=2343, high concentration screen): 102%

CNC(=O)c1cnn(-c2nc(N)c3ncn([C@@H]4O[C@H](CO)[C@@H](O)[C@H]4O)c3n2)c1 [Regadenoson]
remaining activity at 1.25 µM ([1]; Well no.=6557, low concentration screen): 106% | remaining activity at 1.25 µM ([1]; Well no.=8367, low concentration screen): 96.6% | remaining activity at 3.75 µM ([2]; Well no.=6557, high concentration screen): 103% | remaining activity at 3.75 µM ([2]; Well no.=8367, high concentration screen): 95.1%

COc1cc(/C=C/c2ccccc2)oc(=O)c1 [5,6-Dehydrokawain]
remaining activity at 1.25 µM ([1]; Well no.=3559, low concentration screen): 105% | remaining activity at 3.75 µM ([2]; Well no.=3559, high concentration screen): 103%

CCc1ccc(OCc2ccccc2C(=O)Nc2ccc3nc(C)cc(N)c3c2)cc1 [JTC-801]
remaining activity at 1.25 µM ([1]; Well no.=5025, low concentration screen): 98.2% | remaining activity at 1.25 µM ([1]; Well no.=7002, low concentration screen): 95.7% | remaining activity at 3.75 µM ([2]; Well no.=5025, high concentration screen): 98.7% | remaining activity at 3.75 µM ([2]; Well no.=7002, high concentration screen): 91.5%

COc1cc2ncnc(Sc3nnc(C)s3)c2cc1OC [SKLB1002]
remaining activity at 1.25 µM ([1]; Well no.=5943, low concentration screen): 102% | remaining activity at 3.75 µM ([2]; Well no.=5943, high concentration screen): 102%

O=C(NCc1ccco1)c1ccc2c(c1)N(Cc1c(F)cccc1Cl)C(=O)CS2 [STING agonist-1]
remaining activity at 1.25 µM ([1]; Well no.=8643, low concentration screen): 102% | remaining activity at 3.75 µM ([2]; Well no.=8643, high concentration screen): 103%

CC(N)C12CC3CC(CC(C3)C1)C2 (centres unmarked) [Rimantadine]
remaining activity at 1.25 µM ([1]; Well no.=2203, low concentration screen): 99.7% | remaining activity at 3.75 µM ([2]; Well no.=2203, high concentration screen): 99.8%

CC(/C=C1\SC(=S)N(CC(=O)O)C1=O)=C\c1ccccc1 [Epalrestat]
remaining activity at 1.25 µM ([1]; Well no.=5046, low concentration screen): 100% | remaining activity at 3.75 µM ([2]; Well no.=5046, high concentration screen): 104%

CCCCc1ccc(C(=O)O)nc1 [Fusaric acid]
remaining activity at 1.25 µM ([1]; Well no.=613, low concentration screen): 98.5% | remaining activity at 3.75 µM ([2]; Well no.=613, high concentration screen): 99.1%

CC1(C)CC(O)CC(C)(C)N1[O] [TEMPOL]
remaining activity at 1.25 µM [1]: 93.1% | remaining activity at 3.75 µM [2]: 95.9%

Cc1cccc(C)c1OCC(=O)N[C@@H](Cc1ccccc1)[C@@H](O)C[C@H](Cc1ccccc1)NC(=O)[C@H](C(C)C)N1CCCNC1=O [Lopinavir]
remaining activity at 1.25 µM ([1]; Well no.=9076, low concentration screen): 83.9% | remaining activity at 3.75 µM ([2]; Well no.=9076, high concentration screen): 84.3%

CCCCCC[C@@H]([C@@H](C)O)n1cnc2c(N)ncnc21 [erythro-9-(2-Hydroxy-3-nonyl)adenine hydrochloride]
remaining activity at 1.25 µM ([1]; Well no.=513, low concentration screen): 105% | remaining activity at 3.75 µM ([2]; Well no.=513, high concentration screen): 105%

NC(=O)c1cc(S(=O)(=O)Nc2ccc3cc(C4CC4)[nH]c3c2)ccc1O [CD73-IN-1]
remaining activity at 1.25 µM ([1]; Well no.=8325, low concentration screen): 95.7% | remaining activity at 3.75 µM ([2]; Well no.=8325, high concentration screen): 94.5%

O=C(OCOC(=O)[C@H]1CCCN1C(=O)CCCCC(=O)N1CCC[C@@H]1C(=O)OCOC(=O)OC1CCOCC1)OC1CCOCC1 [amyloid P-IN-1]
remaining activity at 1.25 µM ([1]; Well no.=7788, low concentration screen): 103% | remaining activity at 3.75 µM ([2]; Well no.=7788, high concentration screen): 105%

Cc1ccc(Cl)c(Nc2ccccc2C(=O)O)c1Cl [Meclofenamic acid sodium salt]
remaining activity at 1.25 µM ([1]; Well no.=5492, low concentration screen): 104% | remaining activity at 3.75 µM ([2]; Well no.=5492, high concentration screen): 106%

CC1CS(=O)(=O)CCN1/N=C/c1ccc([N+](=O)[O-])o1 (centres unmarked) [Nifurtimox]
remaining activity at 1.25 µM ([1]; Well no.=5382, low concentration screen): 98.3% | remaining activity at 3.75 µM ([2]; Well no.=5382, high concentration screen): 99.2%
